What was measured:
Experiment in all cases: Generic kinase assay (33P-ATP, Myelin Basic Protein)
Type in all cases: biochemical
[1] = target: EGFR (Homo sapiens, UniProt P00533); conditions: class symbol: % inhibition at 10 μM or IC50
Method: (§1) In order to determine the inhibitory effect of the compounds of the subject invention on various target enzymes a generic kinase assay was established.
(§2) Reactions were performed in 96-Well U-bottom microtiter plates (Greiner Bio-One; Frickenhausen/Germany, Cat. No. 650161), hereinafter designated “Assay Plates”. 10 μl of a solution comprising 40 μM Myelin Basic Protein (Invitrogen; Carlsbad, Calif./USA; Cat. No. 13228-010) and 4 μM ATP in three-fold concentrated Reaction Buffer (60 mM Tris-HCl, pH 7.5; 30 mM MgCl2; 3 mM dithiothreitol) were added into each well of the Assay Plate. 10 μl of serial dilutions of the compounds of the subject invention, dissolved in 4% DMSO, were then added into each well, except for Positive Control. Wells (C+ wells) and Negative Control Wells (C− wells). 10 μl of 4% DMSO without compounds were added to C+ and C− wells. 10 μl of a 500 mM solution of EDTA in water was then added to C− wells. Then 10 μl of a solution containing 50 μCi/ml Adenosine 5′-[γ-^33P]triphosphate in water was added to each well. To start the reaction 10 μl of the kinase to be assayed was added to each well. The optimal amount of kinase in the assay was determined to be the amount which yields to a turn-over of about 10% of ATP. Assay Plates were incubated for one hour at room temperature. Then 10 μl of a 500 mM solution of EDTA in water was added to each well except C− wells. Samples were now ready for measurement.
(§3) Measurements were preformed in 96-Well MAPH-Filter Plates (Millipore; Billerica, Mass./United States; Cat. No. MAPHNOB50), hereinafter designated “Measurement Plates”. Measurement Plates were washed with 200 μl of a 0.75% H3PO4 solution per well. The H3PO4 solution was exhausted using a Millipore vacuum station. 60 μl of a 0.75% H3PO4 solution was then added into each well, followed by the transfer of 30 μl of each well from the Assay Plate into the corresponding wells of the Measurement Plate. The Measurement Plate was incubated for 30 minutes at room temperature. Thereafter each well was washed three times with 200 μl of a 0.75% H3PO4 solution using a Millipore vacuum station. 20 μl of scintillation liquid (Supermix Liquid Szintillator; Perkin Elmer, Wellesley. Mass./United States; Cat. No. 1200-439) was then added to each well of the Measurement Plate. The plate was sealed and stored for 30 minutes in the darkness before radioactivity was quantified in a MicroBeta Scintillation Counter (Perkin Elmer, Wellesley. Mass./United States).

[2] = target: RICK (Homo sapiens, UniProt O43353); conditions: class symbol: % inhibition at 10 μM or IC50
Method: as §1, §2, §3

[3] = target: cRaf (Homo sapiens, UniProt P04049); conditions: class symbol: % inhibition at 10 μM or IC50; for inhibition at 10 µM: 1 h, read-out: Inhibitory effect on target cRaf
Method: as §1, §2, §3

[4] = tested on: PDGFR; conditions: class symbol: % inhibition at 10 μM or IC50
Method: as §1, §2, §3

[5] = target: c-kit (Homo sapiens, UniProt P10721); conditions: 1 h; class symbol: % inhibition at 10 μM or IC50; read-out: Inhibitory effect on target c-kit
Method: as §1, §2, §3

[6] = target: p56Lck (Homo sapiens, UniProt P06239); conditions: class symbol: % inhibition at 10 μM or IC50; for inhibition at 10 µM: 1 h, read-out: Inhibitory effect on target p56Lck
Method: as §1, §2, §3

[7] = target: Abl (Homo sapiens, UniProt P00519); conditions: 1 h; class symbol: % inhibition at 10 μM or IC50; read-out: Inhibitory effect on target Abl
Method: as §1, §2, §3

Chain of RICK (O43353 whole entry, species assumed): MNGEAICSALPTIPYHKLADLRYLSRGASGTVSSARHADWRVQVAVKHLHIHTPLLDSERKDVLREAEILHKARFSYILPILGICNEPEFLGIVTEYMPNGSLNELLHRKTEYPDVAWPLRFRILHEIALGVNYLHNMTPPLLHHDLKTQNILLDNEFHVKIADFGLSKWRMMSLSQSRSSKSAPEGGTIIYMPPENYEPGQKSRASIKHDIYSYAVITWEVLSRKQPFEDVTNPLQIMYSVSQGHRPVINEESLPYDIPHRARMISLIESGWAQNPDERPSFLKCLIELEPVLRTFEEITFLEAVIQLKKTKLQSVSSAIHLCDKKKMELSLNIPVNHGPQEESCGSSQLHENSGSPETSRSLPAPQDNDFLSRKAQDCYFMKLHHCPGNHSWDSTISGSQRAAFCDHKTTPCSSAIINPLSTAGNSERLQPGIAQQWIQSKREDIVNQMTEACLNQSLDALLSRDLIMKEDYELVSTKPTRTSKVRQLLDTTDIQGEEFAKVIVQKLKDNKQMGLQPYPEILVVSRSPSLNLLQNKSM
Chain of c-kit (P10721 26-976): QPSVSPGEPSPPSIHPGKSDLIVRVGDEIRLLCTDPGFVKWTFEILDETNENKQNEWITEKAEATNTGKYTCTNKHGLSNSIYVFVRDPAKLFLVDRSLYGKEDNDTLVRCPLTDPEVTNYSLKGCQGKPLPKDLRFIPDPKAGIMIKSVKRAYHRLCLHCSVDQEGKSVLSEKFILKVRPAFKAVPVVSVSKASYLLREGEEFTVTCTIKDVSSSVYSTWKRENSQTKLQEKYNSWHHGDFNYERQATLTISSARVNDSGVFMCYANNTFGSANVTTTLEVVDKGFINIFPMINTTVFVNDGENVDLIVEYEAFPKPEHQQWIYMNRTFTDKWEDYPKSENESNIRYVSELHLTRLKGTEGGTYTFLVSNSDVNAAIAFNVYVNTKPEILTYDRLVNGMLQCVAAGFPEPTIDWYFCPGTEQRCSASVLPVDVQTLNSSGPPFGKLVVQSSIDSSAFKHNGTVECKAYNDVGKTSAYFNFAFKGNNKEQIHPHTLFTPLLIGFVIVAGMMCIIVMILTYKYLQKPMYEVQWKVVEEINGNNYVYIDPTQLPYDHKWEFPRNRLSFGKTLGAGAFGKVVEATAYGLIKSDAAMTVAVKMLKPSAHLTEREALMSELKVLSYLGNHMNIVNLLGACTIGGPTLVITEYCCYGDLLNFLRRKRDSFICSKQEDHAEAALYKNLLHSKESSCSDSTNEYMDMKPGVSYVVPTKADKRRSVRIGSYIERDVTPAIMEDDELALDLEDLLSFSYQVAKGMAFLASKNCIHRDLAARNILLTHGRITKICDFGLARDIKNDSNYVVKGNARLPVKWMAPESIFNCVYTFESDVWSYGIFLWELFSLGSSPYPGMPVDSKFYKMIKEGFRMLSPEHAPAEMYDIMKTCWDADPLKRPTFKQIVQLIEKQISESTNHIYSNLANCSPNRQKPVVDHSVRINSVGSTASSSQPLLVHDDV
Chain of Abl (P00519 whole entry, species assumed): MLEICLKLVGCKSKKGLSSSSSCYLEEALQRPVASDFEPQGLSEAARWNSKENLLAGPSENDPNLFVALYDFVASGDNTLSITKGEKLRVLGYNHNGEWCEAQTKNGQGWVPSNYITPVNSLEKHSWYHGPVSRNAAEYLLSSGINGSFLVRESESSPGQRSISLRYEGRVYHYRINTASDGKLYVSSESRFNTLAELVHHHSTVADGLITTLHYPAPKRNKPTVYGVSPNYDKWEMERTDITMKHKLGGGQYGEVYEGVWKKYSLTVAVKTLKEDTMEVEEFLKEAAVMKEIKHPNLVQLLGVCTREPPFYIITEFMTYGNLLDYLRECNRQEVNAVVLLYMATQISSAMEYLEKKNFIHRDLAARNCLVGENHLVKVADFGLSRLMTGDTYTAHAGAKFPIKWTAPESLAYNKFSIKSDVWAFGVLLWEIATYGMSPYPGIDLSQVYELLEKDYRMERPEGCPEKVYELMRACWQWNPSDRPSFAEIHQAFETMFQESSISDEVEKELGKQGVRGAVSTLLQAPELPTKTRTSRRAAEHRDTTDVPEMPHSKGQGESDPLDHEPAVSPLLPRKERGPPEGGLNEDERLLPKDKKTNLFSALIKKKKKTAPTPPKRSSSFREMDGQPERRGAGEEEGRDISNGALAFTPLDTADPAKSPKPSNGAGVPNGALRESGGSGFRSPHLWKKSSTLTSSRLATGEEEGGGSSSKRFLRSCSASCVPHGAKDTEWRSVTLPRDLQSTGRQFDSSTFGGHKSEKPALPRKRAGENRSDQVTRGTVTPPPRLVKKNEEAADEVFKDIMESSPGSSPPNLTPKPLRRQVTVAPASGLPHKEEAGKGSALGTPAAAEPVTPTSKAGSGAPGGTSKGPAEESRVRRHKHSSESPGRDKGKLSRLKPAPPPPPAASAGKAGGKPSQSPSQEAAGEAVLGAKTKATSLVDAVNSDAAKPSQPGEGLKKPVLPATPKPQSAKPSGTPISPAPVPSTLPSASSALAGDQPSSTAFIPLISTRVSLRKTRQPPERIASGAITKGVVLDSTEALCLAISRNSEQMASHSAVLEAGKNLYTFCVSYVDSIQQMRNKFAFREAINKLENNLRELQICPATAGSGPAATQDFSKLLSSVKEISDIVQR
Chain of EGFR (P00533 25-1210, species assumed): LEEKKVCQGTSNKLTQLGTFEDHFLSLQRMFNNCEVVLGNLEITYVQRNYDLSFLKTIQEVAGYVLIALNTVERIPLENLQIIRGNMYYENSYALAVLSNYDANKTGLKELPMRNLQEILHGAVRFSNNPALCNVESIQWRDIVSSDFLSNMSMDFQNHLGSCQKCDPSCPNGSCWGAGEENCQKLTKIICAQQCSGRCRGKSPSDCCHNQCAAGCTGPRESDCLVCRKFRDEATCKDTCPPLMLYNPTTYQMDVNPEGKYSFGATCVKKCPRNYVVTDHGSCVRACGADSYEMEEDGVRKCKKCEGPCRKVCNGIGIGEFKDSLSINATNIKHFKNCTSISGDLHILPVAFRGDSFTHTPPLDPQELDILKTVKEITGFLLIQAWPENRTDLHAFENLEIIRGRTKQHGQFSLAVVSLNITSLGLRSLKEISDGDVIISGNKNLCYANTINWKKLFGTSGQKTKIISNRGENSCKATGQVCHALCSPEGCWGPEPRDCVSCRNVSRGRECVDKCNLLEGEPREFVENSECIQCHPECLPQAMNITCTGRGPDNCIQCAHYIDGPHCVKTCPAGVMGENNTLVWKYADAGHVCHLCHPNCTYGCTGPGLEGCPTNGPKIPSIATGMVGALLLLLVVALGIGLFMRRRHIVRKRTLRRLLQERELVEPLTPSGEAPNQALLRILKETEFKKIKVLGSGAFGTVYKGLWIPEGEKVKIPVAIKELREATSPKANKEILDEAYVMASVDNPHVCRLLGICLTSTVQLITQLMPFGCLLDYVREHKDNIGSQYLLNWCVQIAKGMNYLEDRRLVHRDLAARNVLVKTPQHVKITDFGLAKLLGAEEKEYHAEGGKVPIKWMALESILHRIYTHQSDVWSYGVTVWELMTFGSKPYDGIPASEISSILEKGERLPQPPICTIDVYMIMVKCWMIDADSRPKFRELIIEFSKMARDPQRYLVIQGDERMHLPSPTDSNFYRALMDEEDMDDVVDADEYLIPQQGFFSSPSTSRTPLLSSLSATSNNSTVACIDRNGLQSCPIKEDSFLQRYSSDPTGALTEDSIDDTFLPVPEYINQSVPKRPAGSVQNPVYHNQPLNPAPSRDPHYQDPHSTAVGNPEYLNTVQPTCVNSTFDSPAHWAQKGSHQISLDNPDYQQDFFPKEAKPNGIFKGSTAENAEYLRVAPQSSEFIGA
Chain of cRaf (P04049 whole entry, species assumed): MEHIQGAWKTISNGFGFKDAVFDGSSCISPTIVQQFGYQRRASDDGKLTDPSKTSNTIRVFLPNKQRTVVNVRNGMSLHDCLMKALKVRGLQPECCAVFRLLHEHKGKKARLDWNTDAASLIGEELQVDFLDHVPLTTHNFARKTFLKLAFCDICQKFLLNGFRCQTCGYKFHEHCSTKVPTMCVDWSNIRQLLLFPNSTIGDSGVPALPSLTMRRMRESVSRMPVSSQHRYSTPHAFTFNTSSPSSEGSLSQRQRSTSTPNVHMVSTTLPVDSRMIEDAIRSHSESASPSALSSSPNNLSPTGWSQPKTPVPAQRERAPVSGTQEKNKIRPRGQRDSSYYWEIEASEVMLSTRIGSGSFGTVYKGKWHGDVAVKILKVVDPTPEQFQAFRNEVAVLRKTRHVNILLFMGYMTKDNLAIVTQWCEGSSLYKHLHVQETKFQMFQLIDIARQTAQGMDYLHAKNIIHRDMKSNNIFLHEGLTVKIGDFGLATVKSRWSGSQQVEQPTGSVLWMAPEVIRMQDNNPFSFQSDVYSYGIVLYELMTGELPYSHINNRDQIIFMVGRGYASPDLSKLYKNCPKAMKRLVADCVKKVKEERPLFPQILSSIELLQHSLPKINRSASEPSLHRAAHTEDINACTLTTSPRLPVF
Chain of p56Lck (P06239 whole entry, species assumed): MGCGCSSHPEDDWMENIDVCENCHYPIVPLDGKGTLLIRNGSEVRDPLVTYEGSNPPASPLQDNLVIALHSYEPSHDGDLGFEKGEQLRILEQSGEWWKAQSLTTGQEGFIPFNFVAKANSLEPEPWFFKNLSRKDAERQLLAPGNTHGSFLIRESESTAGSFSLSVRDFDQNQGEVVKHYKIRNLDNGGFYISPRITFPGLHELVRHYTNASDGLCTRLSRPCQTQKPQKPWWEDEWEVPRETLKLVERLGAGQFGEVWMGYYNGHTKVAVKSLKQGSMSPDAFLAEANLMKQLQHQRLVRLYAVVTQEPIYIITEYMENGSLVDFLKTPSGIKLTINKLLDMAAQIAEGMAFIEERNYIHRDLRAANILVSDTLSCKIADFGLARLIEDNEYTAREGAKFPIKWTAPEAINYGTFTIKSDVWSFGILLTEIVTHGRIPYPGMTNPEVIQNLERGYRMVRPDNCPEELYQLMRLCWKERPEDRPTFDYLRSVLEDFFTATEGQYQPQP

| SMILES | Inhibitory effect on target RICK [2] | inhibition at 10 µM [3] [%] | inhibition at 10 µM [5] [%] | inhibition at 10 µM [6] [%] | inhibition at 10 µM [7] [%] | Inhibitory effect on target EGFR [1] | Inhibitory effect on target PDGFR [4] | Inhibitory effect on target p56Lck [6] | Inhibitory effect on target cRaf [3] |
| --- | --- | --- | --- | --- | --- | --- | --- | --- | --- |
| COc1ccc(-c2cncc(NCc3cccc(O)c3)c2)cc1OC [Compound 223, 3-{[5-(3,4-Dimethoxy-phenyl)-pyridin-3-ylamino]-methyl}-phenol] | C (C: IC50 measured: <1 μM) | 50 to 90 | > 90 | 50 to 90 | 50 to 90 | A (A: 50-90% inhibition at 10 μM enzyme concentration) | A (A: 50-90% inhibition at 10 μM enzyme concentration) | – | – |
| Oc1cccc(CNc2cncc(-c3cncnc3)c2)c1 [Compound 195, 3-[(5-Pyrimidin-5-yl-pyridin-3-ylamino)-methyl]-phenol] | C (C: IC50 measured: <1 μM) | 50 to 90 | 50 to 90 | 50 to 90 | – | – | – | – | – |
| Oc1cccc(CNc2cncc(-c3cccnc3)c2)c1 [Compound 159, 3-([3,3′]Bipyridinyl-5-ylaminomethyl)-phenol] | C (C: IC50 measured: <1 μM) | – | 50 to 90 | 50 to 90 | 50 to 90 | A (A: 50-90% inhibition at 10 μM enzyme concentration) | A (A: 50-90% inhibition at 10 μM enzyme concentration) | – | – |
| COc1cncc(-c2cncc(NCc3cccc(O)c3)c2)c1 [Compound 222, 3-[(5′-Methoxy-[3,3′]bipyridinyl-5-ylamino)-methyl]-phenol] | C (C: IC50 measured: <1 μM) | – | 50 to 90 | 50 to 90 | 50 to 90 | – | A (A: 50-90% inhibition at 10 μM enzyme concentration) | – | – |
| CS(=O)(=O)c1ccc(-c2cncc(NCc3cccc(O)c3)c2)cc1 [Compound 206, 3-{[5-(4-Methanesulfonyl-phenyl)-pyridin-3-ylamino]-methyl}-phenol] | C (C: IC50 measured: <1 μM) | – | 50 to 90 | 50 to 90 | – | – | – | – | – |
| Oc1cccc(CNc2cncc(-c3ccc(N4CCOCC4)cc3)c2)c1 [Compound 218, 3-{[5-(4-Morpholin-4-yl-phenyl)-pyridin-3-ylamino]-methyl}-phenol] | C (C: IC50 measured: <1 μM) | – | > 90 | 50 to 90 | – | A (A: 50-90% inhibition at 10 μM enzyme concentration) | A (A: 50-90% inhibition at 10 μM enzyme concentration) | – | – |
| CC(=O)Nc1cccc(-c2cncc(Nc3ccccc3)c2)c1 [Compound 194, N-[3-(5-Phenylamino-pyridin-3-yl)-phenyl]-acetamide] | C (C: IC50 measured: <1 μM) | – | 50 to 90 | – | – | – | A (A: 50-90% inhibition at 10 μM enzyme concentration) | – | – |
| O=C(NCCO)c1cccc(-c2cncc(NCc3cccc(O)c3)c2)c1 [Compound 217, 3-[5-(3-Hydroxy-benzylamino)-pyridin-3-yl]-N-(2-hydroxy-ethyl)-benzamide] | C (C: IC50 measured: <1 μM) | – | > 90 | > 90 | 50 to 90 | A (A: 50-90% inhibition at 10 μM enzyme concentration) | A (A: 50-90% inhibition at 10 μM enzyme concentration) | – | – |
| COc1ccc(-c2cncc(NCc3cccc(O)c3)c2)cn1 [Compound 207, S—K6′-Methoxy-fS.S′lbipyridinyl-δ-ylaminoJ-mθthyll-phenol] | C (C: IC50 measured: <1 μM) | – | – | – | – | – | – | A (A: 50-90% inhibition at 10 μM enzyme concentration) | – |
| COC(=O)c1cccc(CNc2cncc(-c3cccc(O)c3)c2)c1 [Compound 264, 3-{[5-(3-Hydroxy-phenyl)-pyridin-3-ylamino]mθthyl}-benzoic acid methyl ester] | A (A: 50-90% inhibition at 10 μM enzyme concentration) | – | – | – | – | A (A: 50-90% inhibition at 10 μM enzyme concentration) | A (A: 50-90% inhibition at 10 μM enzyme concentration) | A (A: 50-90% inhibition at 10 μM enzyme concentration) | A (A: 50-90% inhibition at 10 μM enzyme concentration) |

The next lines start with results.

| Inhibitory effect on target RICK [2] | inhibition at 10 µM [3] [%] | inhibition at 10 µM [5] [%] | inhibition at 10 µM [6] [%] | inhibition at 10 µM [7] [%] | SMILES | Inhibitory effect on target EGFR [1] | Inhibitory effect on target PDGFR [4] | Inhibitory effect on target p56Lck [6] | Inhibitory effect on target cRaf [3] |
| --- | --- | --- | --- | --- | --- | --- | --- | --- | --- |
| C (C: IC50 measured: <1 μM) | 50 to 90 | > 90 | > 90 | > 90 | Nc1cccc(-c2cncc(NCc3cccc(O)c3)c2)c1 [Compound 232, 3-{[5-(3-Amino-phenyl)-pyridin-3-ylamino]-methyl}-phenol] | A (A: 50-90% inhibition at 10 μM enzyme concentration) | A (A: 50-90% inhibition at 10 μM enzyme concentration) | – | – |
| C (C: IC50 measured: <1 μM) | – | 50 to 90 | 50 to 90 | 50 to 90 | CN(C)CCNC(=O)c1cccc(-c2cncc(NCc3cccc(O)c3)c2)c1 [Compound 224, N-(2-Dimethylamino-ethyl)-3-[5-(3-hydroxy-benzylamino)-pyridin-3-yl]-benzamide] | A (A: 50-90% inhibition at 10 μM enzyme concentration) | A (A: 50-90% inhibition at 10 μM enzyme concentration) | – | – |
| C (C: IC50 measured: <1 μM) | 50 to 90 | > 90 | 50 to 90 | 50 to 90 | Oc1cccc(CNc2cncc(-c3ccccc3)c2)c1 [Compound 238, 3-[(5-Phenyl-pyridin-3-ylamino)-methyl]-phenol] | A (A: 50-90% inhibition at 10 μM enzyme concentration) | A (A: 50-90% inhibition at 10 μM enzyme concentration) | – | – |
| C (C: IC50 measured: <1 μM) | – | 50 to 90 | – | – | Oc1cccc(CNc2cncc(-c3ccsc3)c2)c1 [Compound 228, 3-[(5-Thiophen-3-yl-pyridin-3-ylamino)-methyl]-phenol] | – | A (A: 50-90% inhibition at 10 μM enzyme concentration) | – | – |
| C (C: IC50 measured: <1 μM) | – | > 90 | 50 to 90 | 50 to 90 | CS(=O)(=O)Nc1cccc(-c2cncc(NCc3cccc(O)c3)c2)c1 [Compound 226, N-{3-[5-(3-Hydroxy-benzylamino)-pyridin-3-yl]-phenyl}-methanesulfonamide] | A (A: 50-90% inhibition at 10 μM enzyme concentration) | A (A: 50-90% inhibition at 10 μM enzyme concentration) | – | – |
| C (C: IC50 measured: <1 μM) | – | 50 to 90 | 50 to 90 | 50 to 90 | Oc1cccc(CCNc2cncc(-c3cccc(O)c3)c2)c1 [Compound 244, 3-{5-[2-(3-Hydroxy-phenyl)-ethylamino]-pyridin-3-yl}-phenol] | B (B: >90% inhibition at 10 μM enzyme concentration) | A (A: 50-90% inhibition at 10 μM enzyme concentration) | – | – |
| C (C: IC50 measured: <1 μM) | – | 50 to 90 | – | – | COc1ccc(Nc2cncc(-c3cccc(NC(C)=O)c3)c2)cc1 [Compound 227, N-{3-[5-(4-Methoxy-phenylamino)-pyridin-3-yl]-phenyl}-acetamide] | – | A (A: 50-90% inhibition at 10 μM enzyme concentration) | – | – |
